Legend:
[1] = tested on: MDA MB 468 xenografts; assay: Fluorescence imaging of HSP90 expression in mouse xenografts (IVIS imager, plate reader); type: in vivo, Mice
Method: Mice with MDA MB 468 xenografts were injected with either 0.1, 0.5 or 1 mg of compound 10 intravenously. The animals were then immediately imaged in real time in an IVIS Kinetic imager (Caliper Life Science) for the presence of fluorescence at 465ex/520em. After two hours the tumors were excised and examined for the presence of compound 10.
Red image (false, 1 vs. 2) clearly demarks the tumor over background signal (appearing very dark gray in FIG. 14A).
Measurements were made in the IVIS imager or by preparing cells extracts from the tumors and measuring their fluorescence in a microtitre plate reader.

[2] = tested on: xenografts (MDA-MB 468); assay: Confocal analysis of xenograft tissue slices after IP injection; type: in vivo; conditions: harvested one hour after injection (IP), FIG. 8
Method: Tissue slices were prepared from the harvested xenografts and prepared for analysis by confocal analysis. […] A tissue slice from the control experiment is shown in which the animal was injected with vehicle alone (DMSO). Only background fluorescence is detected. In FIG. 8 the green staining from compound 10 fluorescence appears white or light gray, while blue from the DAPI-stained nuclei appears dark gray.

[3] = tested on: MCF7 cells; assay: Anion exchange chromatography of extracts of cells treated with compound 10; type: cell-based; conditions: MCF7 cells treated with compound 10; peak at 49 minutes
Method: (§1) Hsp90 was purified from pig mammary gland as described in Hughes et al., Bioorg Med Chem. 2012, 20(10):3298-3305. The purified protein (0.3 g) was mixed with an excess of compound 10. The unbound probe was removed by dialysis and the labeled protein subjected to microanion exchange chromatography using a Pharmacia SMART system. Column fractions (100 μL) were collected and analyzed for fluorescence in a plate reader. […] The chromatography experiment was then repeated on cell extracts prepared from MCF7 and BT474 cells treated with compound 10.

[4] = tested on: BT474 cells; assay: as above; type: cell-based; conditions: BT474 cells treated with compound 10; peak at 49 minutes
Method: as §1

[5] = tested on: MDA-MB 468; assay: Fluorescence microscopy uptake of probe in tumor cells; type: cell-based, human; conditions: micromolar concentrations, FIG. 4
From the text: (§2) In one experiment, the fluorescein compound 10 was applied at micromolar concentrations to four types of tumor cells. […] The probe (10) fluoresces to give green staining in images obtained; in FIG. 4, the green staining appears white.

[6] = tested on: BT474; assay: as above; type: cell-based, human; conditions: micromolar concentrations, FIG. 4
From the text: as §2

[7] = tested on: MCF-7; assay: as above; type: cell-based, human; conditions: micromolar concentrations, FIG. 4
From the text: as §2

[8] = tested on: Huh7 cell line; assay: as above; type: cell-based, human; conditions: micromolar concentrations; Huh7, non-metastatic; FIG. 4
From the text: as §2

[9] = tested on: MDA-MB-468 tumor; assay: Tumor labeling experiment, frozen sections under fluorescent microscope; type: in vivo, NOD/SCID mice; conditions: 1 mg/mouse intraperitoneal; from 2 to 48 h; FIG. 12
Method: MDA-MB-468 tumor cells (5 M cells/mouse) were injected to the flank of NOD/SCID mice. After 3 weeks, tumor volumes reached 400-450 mm^3. Mice were treated/untreated with intraperitoneal injection of compound 10 (1 mg/mouse). After 2, 24, 48 and 72 hours, mice were sacrificed, and tumor tissues were frozen in OCT compound. FITC(+) cells in tumor tissues (frozen sections) were analyzed under fluorescent microscope (Axio Observer). In FIG. 12, the green staining from compound 10 fluorescence appears white or light gray.

[10] = tested on: MCF cells; assay: Heat treatment of cells, compound 10 uptake, micro anion-exchange chromatography of extracts; type: cell-based; conditions: 10 μM, FIG. 13B
Method: MCF cells were heated to 42° C. or maintained at 37° C. for 60 minutes. Compound 10 was added (10 μM) and after 60 minutes the cells harvested. Extracts were prepared and separated by micro anion-exchange chromatography. Column fractions were analyzed for the presence of compound 10.

[11] = tested on: MDA-MB-468 tumor; assay: In vivo detection of compound 10 with optical spectroscopy; design: species or system SCID mice; conditions: 1 mg via tail vein, FIG. 15
Method: MDA-MB-468 tumor cells (1 M cells/mouse) were injected to the flank of SCID mice. Three weeks later, when tumor size reached 5-8 mm in diameter, the experiment was performed. Baseline autofluorescence levels were measured for tumor and normal tissues (skin adjacent to tumor). 1 mg or 0.5 mg of compound 10 was injected via tail vein. After drug injection, fluorescence signals were measured with the optical spectroscopy (˜30 min). Two days after injection, measurement of fluorescence signal was repeated.
Normal: Normal skin adjacent to tumor. All data are normalized to peak fluorescence intensity to compare fluorescence line shapes. […] Measurements were made within a few minutes of injection.

[12] = tested on: Hsp90; assay: Recovery of compound 10 bound to purified Hsp90 by microanion exchange chromatography; type: binding, pig; conditions: excess compound 10, dialysis; Western blot and mass spectrometry; FIG. 13A
Method: as §1

[13] = tested on: Hsp90; assay: Recovery of drug-bound protein from tumors of mice by micro anion-exchange chromatography; type: in vivo; conditions: 1 mg IV, tumors excised after 2 hours, FIG. 17
Method: Mice were injected (IV) with 1 mg of compound 10 and the tumors were excised from the animal after 2 hours. Tissue extracts were prepared and characterized by micro anion-exchange chromatography. Column fractions were analyzed for the presence of compound 10 by fluorescence and mass spectrometry.

Structure (SMILES): Cc1nn(-c2ccc(C(N)=O)c(NCCCOCCOCCOCCOCCOCCCNC(=S)Nc3ccc4c(c3)C(=O)OC43c4ccc(O)cc4Oc4cc(O)ccc43)c2)c2c1C(=O)CC(C)(C)C2 [Compound 10, 2-((1-((3′,6′-dihydroxy-3-oxo-3H-spiro[isobenzofuran-1,9′-xanthen]-5-yl)amino)-1-thioxo-6,9,12,15,18-pentaoxa-2-azahenicosan-21-yl)amino)-4-(3,6,6-trimethyl-4-oxo-4,5,6,7-tetrahydro-1H-indazol-1-yl)benzamide]
- accumulation in tumors isolated from mice ([1]; indicated doses, IVIS imager or tumor cell extracts in plate reader, FIG. 14B, 14C): accumulates selectively within the tumor mass in a dose dependent manner
- accumulation in the xenograft, real time imaging ([1]; tail vein injection, 465ex/520em, FIG. 14A): rapid accumulation
- presence of compound in tumor cells of xenograft [2]: detected within the tumor cells
- fluorescence peak of cell extract [3]: co-elutes with Hsp90
- fluorescence peak of cell extract [4]: co-elutes with Hsp90
- uptake of the probe [5]: take up the probe readily
- uptake of the probe [6]: take up the probe readily
- uptake of the probe [7]: take up the probe readily
- uptake of the probe [8]: does not absorb the probe
- FITC signal of tumor cells in frozen sections [9]: intense FITC signal
- major peak of fluorescence of cell extract ([10]; 60 minutes): correlates with elution of Hsp90
- effect of heat treatment on uptake ([10]; 42° C. vs 37° C. for 60 minutes): increased uptake
- fluorescence signal in tumor, Day 3 [11]: still retains FITC signal
- fluorescence signal at normal site, Day 3 ([11]; normal skin adjacent to tumor): declined to pre-injection baseline level
- fluorescence signal, normal skin versus tumor, Day 0 ([11]; within a few minutes of injection): Normal shows higher signal than tumor
- fluorescence elution profile of labeled purified Hsp90 [12]: single peak was recovered by fluorescence that correlated with elution of Hsp90
- two minor peaks of fluorescence of tumor extract ([13]; fractions 27-35): attributable to binding to degraded forms of the N terminal domain of Hsp90
- major peak of fluorescence of tumor extract ([13]; fractions 49-53): correlates with elution of full length Hsp90
